The assay deals with T1, CFTR (Homo sapiens, UniProt P13569, DEL508-508).
T1 construct: endogenous in cells; host or cells: primary human bronchial epithelial cells from CF subjects (F508del/MF-HBE), differentiated at air-liquid interface
The assay is described as follows: HBE assay: Ussing chamber assay of CFTR-mediated short-circuit currents. The assay is classed as cell-based. As to conditions: for EC50: read-out: HBE EC50. The procedure: 1. Ussing Chamber Assay of CFTR-Mediated Short-Circuit Currents
Ussing chamber experiments were performed using human bronchial epithelial (HBE) cells derived from CF subjects heterozygous for F508del and a minimal function CFTR mutation (F508del/MF-HBE) and cultured as previously described (Neuberger T, Burton B, Clark H, Van Goor F Methods Mol Biol 2011:741:39-54). After four days the apical media was removed, and the cells were grown at an air liquid interface for >14 days prior to use.
(§1) To isolate the CFTR-mediated short-circuit (ISC) current, F508del/MF-HBE grown on Costar® Snapwell™ cell culture inserts were mounted in an Ussing chamber and the transepithelial ISC was measured under voltage-clamp recording conditions (Vhold=0 mV) at 37° C. The basolateral solution contained (in mM) 145 NaCl, 0.83 K2HPO4, 3.3 KH2PO4, 1.2 MgCl2, 1.2 CaCl2), 10 Glucose, 10 HEPES (pH adjusted to 7.4 with NaOH) and the apical solution contained (in mM) 145 NaGluconate, 1.2 MgCl2, 1.2 CaCl2), 10 glucose, 10 HEPES (pH adjusted to 7.4 with NaOH) and 30 μM amiloride to block the epithelial sodium channel. Forskolin (20 μM) was added to the apical surface to activate CFTR, followed by apical addition of a CFTR inhibitor cocktail consisting of BPO, GlyH-101, and CFTR inhibitor 172 (each at 20 μM final assay concentration) to specifically isolate CFTR currents. The CFTR-mediated ISC (μA/cm^2) for each condition was determined from the peak forskolin response to the steady-state current following inhibition.
2. Identification of Corrector Compounds
The activity of the CFTR corrector compounds on the CFTR-mediated ISC was determined in Ussing chamber studies as described above. The F508del/MF-HBE cell cultures were either incubated with the corrector compounds at a range of concentrations in combination with 1 μM Ivacaftor or were incubated with the corrector compounds at a single fixed concentration of 10 μM in combination with 1 μM Ivacaftor for 18-24 hours at 37° C. and in the presence of 20% human serum. The concentration of corrector compounds with 1 μM Ivacaftor during the 18-24 hours incubations was kept constant throughout the Ussing chamber measurement of the CFTR-mediated ISC to ensure compounds were present throughout the entire experiment.
Ussing Chamber Assay of CFTR-mediated short-circuit currents
Ussing chamber experiments were performed using human bronchial epithelial (HIBE) cells derived from CF subjects heterozygous for F508del and a minimal function CFTR mutation (F508del/MIF-HIBE) and cultured as previously described (Neuberger T, Burton B, Clark H, Van Goor F Methods Mol Biol 2011:741:39-54). After four days the apical media was removed, and the cells were grown at an air liquid interface for >14 days prior to use.
as §1, with “KH2PO4,” for “K2HPO4,”
Identification of Corrector Compounds

Setting [1] is: Table 11, read-out: HBE Activity at 10 μM (%).
Setting [2] is: Table 10, read-out: HBE Max activity (%).
The mark [3] stands for this setting: Table 11, read-out: HBE Max Activity (%).

The structures appear in SMILES notation. Read-outs that look alike come from different tables or passages of the source. A value given as a limit tells only on which side of the number the result lay.

T1 sequence (P13569 with tags, fused parts or gaps DEL508-508): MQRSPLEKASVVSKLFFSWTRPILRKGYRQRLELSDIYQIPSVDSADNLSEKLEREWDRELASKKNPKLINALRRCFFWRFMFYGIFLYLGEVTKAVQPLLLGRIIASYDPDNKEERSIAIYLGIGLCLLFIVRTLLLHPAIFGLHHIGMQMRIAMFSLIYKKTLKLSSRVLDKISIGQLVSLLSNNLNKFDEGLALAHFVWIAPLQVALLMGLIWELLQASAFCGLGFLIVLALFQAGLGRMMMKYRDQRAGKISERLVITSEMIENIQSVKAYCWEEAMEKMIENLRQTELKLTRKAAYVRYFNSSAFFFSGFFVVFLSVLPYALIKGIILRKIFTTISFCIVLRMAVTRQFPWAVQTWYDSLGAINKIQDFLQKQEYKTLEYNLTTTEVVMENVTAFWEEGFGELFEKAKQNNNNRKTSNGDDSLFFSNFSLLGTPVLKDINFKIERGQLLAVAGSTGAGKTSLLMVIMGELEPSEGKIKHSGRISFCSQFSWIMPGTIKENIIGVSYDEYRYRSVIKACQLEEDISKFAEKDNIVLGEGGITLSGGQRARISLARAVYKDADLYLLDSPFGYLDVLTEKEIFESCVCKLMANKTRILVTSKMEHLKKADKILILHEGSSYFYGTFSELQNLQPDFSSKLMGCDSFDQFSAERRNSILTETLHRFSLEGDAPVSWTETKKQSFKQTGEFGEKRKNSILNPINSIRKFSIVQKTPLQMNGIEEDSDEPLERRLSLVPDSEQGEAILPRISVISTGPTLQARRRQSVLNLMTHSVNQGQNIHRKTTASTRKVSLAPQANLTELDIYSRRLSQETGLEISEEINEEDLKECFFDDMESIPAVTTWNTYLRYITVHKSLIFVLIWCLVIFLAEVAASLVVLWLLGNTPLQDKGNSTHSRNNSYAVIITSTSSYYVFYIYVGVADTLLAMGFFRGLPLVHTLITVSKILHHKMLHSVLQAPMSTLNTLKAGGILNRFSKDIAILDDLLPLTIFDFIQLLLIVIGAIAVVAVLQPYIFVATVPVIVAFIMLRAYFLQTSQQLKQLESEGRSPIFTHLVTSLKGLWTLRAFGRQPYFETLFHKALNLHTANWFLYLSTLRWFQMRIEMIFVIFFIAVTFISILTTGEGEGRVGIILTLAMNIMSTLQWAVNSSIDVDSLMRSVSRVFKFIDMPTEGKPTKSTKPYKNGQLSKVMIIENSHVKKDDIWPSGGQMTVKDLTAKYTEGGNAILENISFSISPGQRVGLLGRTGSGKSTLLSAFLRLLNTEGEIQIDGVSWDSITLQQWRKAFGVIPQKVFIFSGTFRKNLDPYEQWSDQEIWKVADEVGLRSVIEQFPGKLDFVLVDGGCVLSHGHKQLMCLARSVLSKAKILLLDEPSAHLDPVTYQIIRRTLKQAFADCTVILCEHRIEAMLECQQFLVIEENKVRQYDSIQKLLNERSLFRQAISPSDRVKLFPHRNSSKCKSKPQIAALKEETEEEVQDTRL

For the compound `COCC1CCC(C)(C)N1c1cncc(CN2C(=O)c3cccc(c3)S(=O)(=O)Nc3nc(cc(-c4c(C)cccc4C)n3)OC[C@H]2CC(C)(C)C)n1` (stereo in doubt) [Compound 1480], for the setting “HBE assay”, the EC50 is less than 1 µM. The Emax (HBE assay, read-out: HBE Max activity (%)) was more than 60%.

For `Cc1cccc(C)c1-c1cc2nc(n1)NS(=O)(=O)c1cccc(c1)C(=O)N(CC1CC(C)(C)CO1)[C@H](CC(C)(C)C)CO2` (stereo partly drawn) [Compound 21, (11R)-12-[(4,4-Dimethyloxolan-2-yl)methyl]-6-(2,6-dimethylphenyl)-11-(2,2-dimethylpropyl)-9-oxa-2λ^6-thia-3,5,12,19-tetraazatricyclo[12.3.1.14,8]nonadeca-1(17),4(19),5,7,14(18),15-hexaene-2,2,13-trione], the activation at 10 µM under setting [1] is more than 60%.

As for `Cc1cccc(C)c1-c1cc2nc(n1)NS(=O)(=O)c1cccc(c1)C(=O)N(CC1CC(C)(C)OC(C)(C)C1)[C@H](CC(C)(C)C)CO2` [Compound 30, (11R)-6-(2,6-Dimethylphenyl)-11-(2,2-dimethylpropyl)-12-[(2,2,6,6-tetramethyloxan-4-yl)methyl]-9-oxa-2λ^6-thia-3,5,12,19-tetraazatricyclo[12.3.1.14,8]nonadeca-1(18),4,6,8(19),14,16-hexaene-2,2,13-trione], the activation at 10 µM under setting [1] is more than 60%.

As to `Cc1cccc(C)c1-c1cc2nc(n1)NS(=O)(=O)c1cccc(c1)C(=O)N(Cc1ccc(C3CCCCC3)cn1)[C@H](CC(C)(C)C)CO2` [Compound 50, (11R)-12-[(5-Cyclohexyl-2-pyridyl)methyl]-6-(2,6-dimethylphenyl)-11-(2,2-dimethylpropyl)-2,2-dioxo-9-oxa-2λ^6-thia-3,5,12,19-tetrazatricyclo[12.3.1.14,8]nonadeca-1(18),4(19),5,7,14,16-hexaen-13-one], under “Table 10”, the EC50 was in the range of 1 to 3 µM. Further, under setting [2], the Emax was more than 60%.

For the compound `Cc1cccc(C)c1-c1cc2nc(n1)NS(=O)(=O)c1cccc(c1)C(=O)N(Cc1ccc(OCC(C)(C)O)cn1)[C@H](CC(C)(C)C)CO2` [Compound 51, (11R)-6-(2,6-Dimethylphenyl)-11-(2,2-dimethylpropyl)-12-[[5-(2-hydroxy-2-methyl-propoxy)-2-pyridyl]methyl]-2,2-dioxo-9-oxa-2λ^6-thia-3,5,12,19-tetrazatricyclo[12.3.1.14,8]nonadeca-1(18),4(19),5,7,14,16-hexaen-13-one], the activation at 10 µM under setting [1] was more than 60%. Besides, the 50% effective concentration (EC50) (Table 11) was less than 1 µM. The Emax under setting [3] is more than 60%.

On to `Cc1cccc(C)c1-c1cc2nc(n1)NS(=O)(=O)c1cccc(c1)C(=O)N(Cc1ccc(C3CCOCC3)cn1)[C@H](CC(C)(C)C)CO2` [Compound 52, (11R)-6-(2,6-Dimethylphenyl)-11-(2,2-dimethylpropyl)-2,2-dioxo-12-[(5-tetrahydropyran-4-yl-2-pyridyl)methyl]-9-oxa-2λ^6-thia-3,5,12,19-tetrazatricyclo[12.3.1.14,8]nonadeca-1(18),4(19),5,7,14,16-hexaen-13-one], for which, under “Table 11”, the EC50 was less than 1 µM. The Emax under setting [3] is more than 60%.

On to `Cc1cccc(C)c1-c1cc2nc(n1)NS(=O)(=O)c1cccc(c1)C(=O)N(Cc1ncccc1-c1cn[nH]c1)[C@H](CC(C)(C)C)CO2` [Compound 53, (11R)-6-(2,6-Dimethylphenyl)-11-(2,2-dimethylpropyl)-2,2-dioxo-12-[[3-(1H-pyrazol-4-yl)-2-pyridyl]methyl]-9-oxa-2λ^6-thia-3,5,12,19-tetrazatricyclo[12.3.1.14,8]nonadeca-1(18),4(19),5,7,14,16-hexaen-13-one], for which the activation at 10 µM (Table 10, read-out: HBE activity at 10 (μM) (%)) was more than 60%. Further, the EC50 (Table 10) was less than 1 µM. Further, under setting [2], the Emax is more than 60%.

Take `Cc1cccc(C)c1-c1cc2nc(n1)NS(=O)(=O)c1cccc(c1)C(=O)N(Cc1ncccc1O)[C@H](CC(C)(C)C)CO2` [Compound 54, (11R)-6-(2,6-Dimethylphenyl)-11-(2,2-dimethylpropyl)-12-[(3-hydroxy-2-pyridyl)methyl]-2,2-dioxo-9-oxa-2λ^6-thia-3,5,12,19-tetrazatricyclo[12.3.1.14,8]nonadeca-1(18),4(19),5,7,14,16-hexaen-13-one]: the EC50 (Table 10) is less than 1 µM. The Emax under setting [2] is more than 60%.

The EC50 is the concentration at which the effect is half-maximal.

The values are drawn from patent US20240150377A1, “MODULATORS OF CYSTIC FIBROSIS TRANSMEMBRANE CONDUCTANCE REGULATOR” (VERTEX PHARMACEUTICALS INCORPORATED, priority 2020, published 2024).
